Reference: patent US5686424A, “2-oxoethyl derivatives as immunosuppressants” (Miles Inc., priority 1995, dated 1997)
Structures can show the parent of a compound that is named as a salt.

Experiments:
FKBP = FKBP (Homo sapiens, UniProt P62942); assay: PPIase Inhibition Assay; type: biochemical; conditions: concentration of inhibitor required for 50% inhibition of enzyme activity; FKBP, substrate Succinyl-Ala-Phe-Pro-Phe-para-nitroanilide; TABLE I
Method in brief: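 Rates from p-nitroaniline release at 390 nm over 90 sec, fitted first-order, were converted to % activity remaining relative to uncatalyzed and uninhibited rates, with IC50 from linear regression of V-/V+ against inhibitor level. FKBP acted on Suc-Ala-Phe-Pro-Phe-pNA with excess chymotrypsin, HEPES pH 7.8, cold buffer.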

human T-cells = assay: Suppression of Human T-Cell Proliferation Assay (PHA-stimulated, [3H]-thymidine incorporation); type: cell-based; conditions: concentration inhibiting [3H]-thymidine incorporation of PHA-stimulated T-cells by 50%, 72 hours; TABLE 2; read-out: IC50
Method in brief: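 Read-out is scintillation counting of [3H]-thymidine pulsed for the last 6 h of a 72 h, 37° C culture. Human T-cells, isolated from LeukoPaks by Lymphoprep and sheep-erythrocyte rosetting, were PHA-M activated (40 μg/ml stock) with compound dilutions added in duplicate wells.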

[1] = tested on: graft versus host response; assay: Mouse Lymph Node Assay for Modulation of Graft versus Host Response; type: in vivo; conditions: mice, 100 mg/kg per day intraperitoneal, after 7 days; popliteal lymph nodes, C57 B1/6-injected limb divided by BDF1-injected limb
Source text: 4) Graft versus Host Assay
Transfer of parental strain T-cells (the graft) into F1 hybrid animals (the host) major different with respect to gene products of the histocompatibility complex (MHC) causes a GVHR. This reaction results from recognition of host allogeneic MHC gene products by specific clones of graft T-cells.
When given systemically in sufficient numbers, the graft T-cells cause a progressive, generally fatal, wasting syndrome. A local, nonfatal GVHR, marked by enlargement of the draining popliteal lymph nodes, ensues when graft T-cells are administered via the footpad as described by Ford et al., 1970, Transplantation 10:258. The GVHR is regarded as a correlate of allograft rejections where specific T-cells of either host or allograft origin are activated after recognition of allogeneic MHC gene products, leading to an immune inflammatory response which ultimately results in the destruction (rejection) of the allograft.
Mouse Lymph Node Assay for Modulation of Graft versus Host Response […]
After 7 days, the draining popliteal lymph nodes from the hind limbs were dissected out and weighed. The magnitude of the GVHR was expressed as the ratio of the mean weight of lymph nodes from the limb injected with semi-allogeneic C57 B1/6 cells divided by the mean weight of lymph nodes from the limb injected with syngeneic BDF1 cells.

NF-AT = NF-AT Inhibition Assay Directed β-Galactosidase Expression in FGL-5 cells; type: cell-based; conditions: 50% inhibition of NF-AT directed β-galactosidase activity in FGL-5 cells stimulated with phorbol dibutyrate and ionomycin; TABLE 3
Method in brief: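 FGL-5 Jurkat cells (3 million cells/ml) carry NF-AT-site-driven lacZ. They were stimulated with phorbol dibutyrate plus ionomycin and incubated with compound 16-18 h at 37 °C, in duplicate wells with matched ethanol or DMSO vehicle controls. β-Galactosidase was read as fluorescence from 4-methylumbelliferyl-β-D-galactoside cleavage, giving percent inhibition.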

FKBP, sequence (P62942 whole entry): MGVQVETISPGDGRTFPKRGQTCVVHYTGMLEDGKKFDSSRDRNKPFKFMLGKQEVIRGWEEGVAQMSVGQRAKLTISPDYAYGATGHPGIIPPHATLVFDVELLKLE

| SMILES | IC50 (FKBP) | IC50 (human T-cells) | Lymph Node Weight Ratio [1] | IC50 (NF-AT) |
| --- | --- | --- | --- | --- |
| CC[C@H](C)[C@H](NC(=O)[C@@H]1CCCN1CC(=O)C12CC3CC(CC(C3)C1)C2)C(=O)NCc1ccccc1 [Example 24, L-Isoleucine, N-[1-(2-Adamantan-1-yl-2-Oxoethyl)-L-Prolyl] Benzylamide] | 0.06 µM | 12 µM | 1.2 | – |
| COc1cc(C(=O)CN2CCCC[C@H]2C(=O)NCC2CCCO2)cc(OC)c1OC (stereo partly drawn) [Example 148, L-Homoproline, 1-[2-(3,4,5-Trimethoxyphenyl)-2-Oxoethyl] tetrahydrofurfurylamide] | > 5 µM | > 15 µM | – | > 15 µM |
| COc1cc(C(=O)CN2CCCC[C@H]2C(=O)NCCc2ccc(S(N)(=O)=O)cc2)cc(OC)c1OC [Example 149, L-Homoproline, 1-[2-(3,4,5-Trimethoxyphenyl)-2-Oxoethyl] 2-(4-Sulfamoylphenyl)ethylamide] | > 5 µM | > 15 µM | – | > 15 µM |
| COc1cc(C(=O)CN2CCCC[C@H]2C(=O)N[C@@H](C)c2ccccc2)cc(OC)c1OC [Example 150, L-Homoproline, 1-[2-(3,4,5-Trimethoxyphenyl)-2-Oxoethyl] (S)-α-methylbenzylamide Hydrochloride] | > 5 µM | > 15 µM | – | > 15 µM |
| COc1cc(C(=O)CN2CCCC[C@H]2C(=O)N[C@H](/C=C/c2ccccc2)CC(C)C)cc(OC)c1OC [Example 151, L-Homoproline, 1-[2-(3,4,5-Trimethoxyphenyl)-2-Oxoethyl] (1-(S)-[2'-(S)-methylpropyl]-3-phenylprop-2-E-enyl)-amide] | > 5 µM | 4 µM | – | > 15 µM |
| COc1cc(C(=O)CN2CCCC[C@H]2C(=O)N[C@@H](CCc2ccccc2)CC(C)C)cc(OC)c1OC [Example 152, L-Homoproline, 1-[2-(3,4,5-Trimethoxyphenyl)-2-Oxoethyl] (1-(S)-[2'-(S)-methylpropyl]-3-phenylpropyl)-amide] | > 5 µM | 8 µM | – | > 15 µM |
| COc1cc(C(=O)CN2CCC[C@H]2C(=O)NCCc2ccc(NC(C)=O)cc2)cc(OC)c1OC [Example 154, L-Proline, 1-[2-(3,4,5-Trimethoxyphenyl)-2-Oxoethyl] 2-(4-(N-Acetyl)aminophenyl)ethylamide] | > 5 µM | 13 µM | – | > 15 µM |
| COc1cc(C(=O)CN2CCC[C@H]2C(=O)NCCc2ccc(NC(=O)c3ccccc3)cc2)cc(OC)c1OC [Example 155, L-Proline, 1-[2-(3,4,5-Trimethoxyphenyl)-2-Oxoethyl] 2-(4-(N-Benzoyl)aminophenyl)ethylamide] | > 5 µM | 9 µM | – | > 15 µM |
| C=CCOC(=O)Nc1ccc(CCNC(=O)[C@@H]2CCCN2CC(=O)c2cc(OC)c(OC)c(OC)c2)cc1 [Example 156, L-Proline, 1-[2-(3,4,5-Trimethoxyphenyl)-2-Oxoethyl] 2-(4-(N-carboalloxy)aminophenyl)ethylamide] | > 5 µM | 6 µM | – | > 15 µM |
| COc1cc(C(=O)CN2CCC[C@H]2C(=O)NCCc2ccc(NC(=O)OCc3ccccc3)cc2)cc(OC)c1OC [Example 157, L-Proline, 1-[2-(3,4,5-Trimethoxyphenyl)-2-Oxoethyl] 2-(4-(N-Carbobenzyloxy)aminophenyl)ethylamide] | > 5 µM | 5 µM | – | > 15 µM |
| C=CCOC(=O)Nc1ccc(CCCOC(=O)[C@@H]2CCCCN2CC(=O)c2cc(OC)c(OC)c(OC)c2)cc1 [Example 159, L-Homoproline, 1-[2-(3,4,5-Trimethoxyphenyl)-2-Oxoethyl] 3-(4-(N-Carboallyloxy)aminophenyl)propyl Ester Hydrochloride] | > 5 µM | 10 µM | – | 3 µM |
| C=CCOC(=O)Nc1ccc(CCCOC(=O)[C@@H]2CCCN2CC(=O)C23CC4CC(CC(C4)C2)C3)cc1 [Example 160, L-Proline, 1-[2-Adamantan-1-yl-2-Oxoethyl] 3-(4-(N-Carboallyloxy)aminophenyl)propyl Ester Hydrochloride] | > 5 µM | > 15 µM | – | > 15 µM |
| C=CCOC(=O)Nc1ccc(CCCOC(=O)[C@@H]2CCCCN2CC(=O)C23CC4CC(CC(C4)C2)C3)cc1 [Example 161, L-Homoproline, 1-[2-Adamant-1-yl-2-Oxoethyl] 3-(4-(N-Carboallyloxy)aminophenyl)propyl Ester Hydrochloride] | > 5 µM | 9 µM | – | > 15 µM |
